“And” between values parts separate entries of the source, which are not always exact repeats. Equal entries are not always repeated. Where two headings read alike, the source gives them in different places.
Legend:
pBR322 plasmid [1] = details: cited from earlier work; for DNA-binding activity expressed as % decrease of fluorescence: previous study
recombinant human DHFR [2] = target: T1, recombinant human DHFR (Homo sapiens, UniProt P00374); design: method as in PMID 31892256; details: previously synthesized TMP analogs A–F; cited from earlier work
T1 construct: purchased
T1 sequence (P00374 1-187): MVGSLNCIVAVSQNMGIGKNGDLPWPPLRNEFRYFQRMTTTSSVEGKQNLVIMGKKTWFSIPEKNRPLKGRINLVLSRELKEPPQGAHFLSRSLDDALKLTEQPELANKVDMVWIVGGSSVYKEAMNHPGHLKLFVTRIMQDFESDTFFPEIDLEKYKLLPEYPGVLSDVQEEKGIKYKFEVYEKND

poly(dG-dC)2 [3] = assay: Ethidium displacement assay, apparent binding constant, poly(dG-dC)2; details: apparent association constant, ± 0.2 × 10^5 M^−1
Description: (§1) The fluorescence of DNA solutions (calf thymus DNA, T4 coliphage DNA, poly(dA-dT)2 and poly(dG-dC)2 with the investigated compound (final concentrations 10, 50, 100 μM) was measured by fluorescence spectrophotometer Infinite M200 TECAN at room temperature according to the procedure described above. The determination of DNA-binding constants was described in previous articles. The apparent binding constant was calculated from KEtBr [EtBr] = Kapp [drug], where [drug] = the concentration of the tested compound at 50% reduction of fluorescence and KEtBr and [EtBr] are known. The results are reported as a percentage of fluorescence decreases in Table 1.

poly(dA-dT)2 [4] = assay: Ethidium displacement assay, apparent binding constant, poly(dA-dT)2; details: apparent association constant, ± 0.2 × 10^5 M^−1
Description: as §1

pBR322 plasmid [5] = assay: Ethidium bromide assay, DNA-binding effect on plasmid pBR322; details: % fluorescence relative to controls
Text: Fluorescence readings are reported as % fluorescence relative to the controls.

[6] = test system: poly(dA-dT)2 (DNA, polymer) AT; assay: ethidium bromide displacement, fluorescence; details: apparent; room temperature; ethidium bromide displaced; compound 10, 50, 100 µM
[7] = test system: poly(dG-dC)2 (DNA, polymer) GC; assay: ethidium bromide displacement, fluorescence; details: apparent; room temperature; ethidium bromide displaced; compound 10, 50, 100 µM
T4 coliphage DNA [8] = assay: Ethidium displacement assay, apparent binding constant, T4 coliphage DNA; details: apparent association constant, ± 0.2 × 10^5 M^−1
Text: The values of binding constants in the range of 0.7–6.4 × 10^5 M^−1 for T4 coliphage DNA for derivatives 1–18 was evidence of their minor-groove selectivity, because the major groove of T4 coliphage DNA is blocked by a-glycosylation of the 5-(hydroxymethyl)cytidine residues. […] All of the compounds bound to AT-rich sequences weaker than netropsin but some of them bound stronger to GC-rich sequences, e.g., compounds 3, 6, and 10.
as §1

recombinant human DHFR [9] = target: T1, recombinant human DHFR; assay: Dihydrofolate reductase (DHFR) inhibition assay; format: biochemical; details: assay kit
calf thymus DNA [10] = assay: Ethidium displacement assay, apparent binding constant, calf thymus DNA; details: apparent association constant, ± 0.2 × 10^5 M^−1
Description: as §1

poly(dA-dT)2 [11] = test system: poly(dA-dT)2; design: method as in earlier work; details: reference values; KEtBr known (ref 25, 47); NT ref 48 (table row: ref 45); cited from earlier work
T4 coliphage DNA [12] = test system: T4 coliphage DNA; design: method as in earlier work; details: reference values; KEtBr known (ref 25, 47); NT ref 48 (table row: ref 45); cited from earlier work
poly(dG-dC)2 [13] = test system: poly(dG-dC)2; design: method as in earlier work; details: reference values; KEtBr known (ref 25, 47); NT ref 48 (table row: ref 45); cited from earlier work
calf thymus DNA [14] = test system: calf thymus DNA; design: method as in earlier work; details: reference values; KEtBr known (ref 25, 47); NT ref 48 (table row: ref 45); cited from earlier work

| Structure (SMILES) | DNA-binding activity expressed as % decrease of fluorescence (pBR322 plasmid [1]) | IC50 (recombinant human DHFR [2]) | Kapp poly (dG-dC)2 (poly(dG-dC)2 [3]) | Kapp Poly (dA-dT)2 (poly(dA-dT)2 [4]) | Decrease of Fluorescence (pBR322 plasmid [5]) | Kapp [6] | Kapp [7] | Kapp T4 DNA (T4 coliphage DNA [8]) | IC50 (recombinant human DHFR [9]) | Kapp Calf Thymus DNA (calf thymus DNA [10]) | Kapp Poly (dA-dT)2 (poly(dA-dT)2 [11]) | Kapp T4 DNA (T4 coliphage DNA [12]) | Kapp poly (dG-dC)2 (poly(dG-dC)2 [13]) | Kapp Calf Thymus DNA (calf thymus DNA [14]) | Decrease of Fluorescence (DNA-binding effect) (pBR322 plasmid [1]; pBR322 plasmid, same conditions, 48 (table row: ref 45)) |
| --- | --- | --- | --- | --- | --- | --- | --- | --- | --- | --- | --- | --- | --- | --- | --- |
| COc1ccc(CC(=O)Nc2cnc(N)nc2)c(OC)c1OC [B] | 45.18% | 0.99 µM | – | – | – | – | – | – | – | – | – | – | – | – | – |
| COc1cc(CCC(=O)Nc2cnc(N)nc2)cc(OC)c1OC [C] | 69.92% | – | – | – | – | – | – | – | – | – | – | – | – | – | – |
| COc1ccc(C(=O)Nc2ccc(N)nc2)cc1OC [Compound 8] | – | – | 350000 M⁻¹ | 310000 M⁻¹ | 56.58% | 3.1 ± 0.2 × 10^5 M^−1 | 3.5 ± 0.2 × 10^5 M^−1 | 240000 M⁻¹ | 10.59 ± 0.06 µM | 250000 M⁻¹ | – | – | – | – | – |
| COc1cccc(C(=O)Nc2ccc(N)nc2)c1 [Compound 9] | – | – | 150000 M⁻¹ | 390000 M⁻¹ | 64.89% | 3.9 ± 0.2 × 10^5 M^−1 | 1.5 ± 0.2 × 10^5 M^−1 | 120000 M⁻¹ | 56.05 ± 0.08 µM | 390000 M⁻¹ | – | – | – | – | – |
| COc1cc(OC)cc(C(=O)Nc2cnc(N)nc2)c1 [Compound 10] | – | – | 470000 M⁻¹ | 110000 M⁻¹ | 70.11% | 1.1 ± 0.2 × 10^5 M^−1 | 4.7 ± 0.2 × 10^5 M^−1 | 70000 M⁻¹ | 19.2 ± 0.01 µM | 260000 M⁻¹ | – | – | – | – | – |
| COc1cccc(C(=O)Nc2cnc(N)nc2)c1 [Compound 11] | – | – | 250000 M⁻¹ | 260000 M⁻¹ | 54.54% | 2.6 ± 0.2 × 10^5 M^−1 | 2.5 ± 0.2 × 10^5 M^−1 | 310000 M⁻¹ | 55.32 ± 0.02 µM | 120000 M⁻¹ | – | – | – | – | – |
| COc1cc(/C=C/C(=O)Nc2cnc(N)nc2)cc(OC)c1OC [Compound 12] | – | – | 210000 M⁻¹ | 150000 M⁻¹ | 60.11% | 1.5 ± 0.2 × 10^5 M^−1 | 2.1 ± 0.2 × 10^5 M^−1 | 280000 M⁻¹ | 26.01 ± 0.02 µM | 210000 M⁻¹ | – | – | – | – | – |
| COc1cc(/C=C/C(=O)Nc2ccc(N)cc2)cc(OC)c1OC [Compound 13] | – | – | 340000 M⁻¹ | 400000 M⁻¹ | 49.9% and 49.89% | 4.0 ± 0.2 × 10^5 M^−1 | 3.4 ± 0.2 × 10^5 M^−1 | 290000 M⁻¹ | 0.89 ± 0.07 µM | 190000 M⁻¹ | – | – | – | – | – |
| COc1cc(NC(=O)/C=C/c2cc(OC)c(OC)c(OC)c2)ccc1N [Compound 14] | – | – | 420000 M⁻¹ | 890000 M⁻¹ | 43.85% | 8.9 ± 0.2 × 10^5 M^−1 | 4.2 ± 0.2 × 10^5 M^−1 | 290000 M⁻¹ | 0.97 ± 0.02 µM | 490000 M⁻¹ | – | – | – | – | – |
| COc1cc(/C=C/C(=O)Nc2ccc(N)nc2)cc(OC)c1OC [Compound 15] | – | – | 240000 M⁻¹ | 310000 M⁻¹ | 68.82% | 3.1 ± 0.2 × 10^5 M^−1 | 2.4 ± 0.2 × 10^5 M^−1 | 230000 M⁻¹ | 12.01 ± 0.01 µM | 190000 M⁻¹ | – | – | – | – | – |
| COc1cc(/C=C/C(=O)Nc2ccc(Cl)c(N)c2)cc(OC)c1OC [Compound 16] | – | – | 380000 M⁻¹ | 270000 M⁻¹ | 57.77% | 2.7 ± 0.2 × 10^5 M^−1 | 3.8 ± 0.2 × 10^5 M^−1 | 310000 M⁻¹ | 0.88 ± 0.02 µM | 130000 M⁻¹ | – | – | – | – | – |
| COc1cc(/C=C/C(=O)Nc2ccc(F)c(N)c2)cc(OC)c1OC [Compound 17] | – | – | 250000 M⁻¹ | 50000 M⁻¹ | 41.68% | 0.5 ± 0.2 × 10^5 M^−1 | 2.5 ± 0.2 × 10^5 M^−1 | 290000 M⁻¹ | 1.22 ± 0.05 µM | 180000 M⁻¹ | – | – | – | – | – |
| COc1cc(/C=C/C(=O)Nc2ccc(N)c(I)c2)cc(OC)c1OC [Compound 18] | – | – | 460000 M⁻¹ | 450000 M⁻¹ | 42.99% | 4.5 ± 0.2 × 10^5 M^−1 | 4.6 ± 0.2 × 10^5 M^−1 | 640000 M⁻¹ | 2.09 ± 0.04 µM | 580000 M⁻¹ | – | – | – | – | – |
| CC[n+]1c(-c2ccccc2)c2cc(N)ccc2c2ccc(N)cc21 [EtBr, Ethidium bromide] | – | – | – | – | 100% | – | – | – | – | – | 95^b* × 10^5 M^−1 | 1e+07 M⁻¹ | 9.9e+06 M⁻¹ | 1e+07 M⁻¹ | – |
| Cn1cc(NC(=O)c2cc(NC(=O)CN=C(N)N)cn2C)cc1C(=O)NCCC(=N)N [NT, netropsin] | – | – | – | – | – | – | – | – | 20.56 ± 0.01 µM | – | 8.75e+07 M⁻¹ | 830000 M⁻¹ | 250000 M⁻¹ | 870000 M⁻¹ | 74% |
